This note sets out measurements from patent publication US8802678B2, “Carbonylated (aza) cyclohexanes as dopamine D3 receptor ligands” (Bioprojet, priority 2006, dated 2014).

As a reminder, the melting point is the temperature, or range, at which the solid turns liquid. In the case of `Cc1c(F)cccc1N1CCN(CC[C@H]2CC[C@H](NC(=O)CCCC#N)CC2)CC1` [Example 356, 4-Cyano-N-(4-{2-[4-(3-fluoro-2-methylphenyl)piperazin-1-yl]ethyl}cyclohexyl)butanamide], the melting point came out at 159 °C. With `N#CCCCC(=O)N[C@H]1CC[C@H](CCN2CCN(c3cc(F)ccc3F)CC2)CC1` [Example 442, 4-Cyano-N-(4-{2-[4-(2,5-difluorophenyl)piperazin-1-yl]ethyl}cyclohexyl)butanamide] the figure was 159 °C; with `COc1ccc(C(F)(F)F)cc1N1CCN(CC[C@H]2CC[C@H](NC(=O)CCCC#N)CC2)CC1` [Example 405, 4-Cyano-N-(4-{2-[4-(2-methoxy-5-trifluoromethylphenyl)piperazin-1-yl]ethyl}cyclohexyl)butanamide], 136 °C; with `N#CCC(=O)N[C@H]1CC[C@H](CCN2CCN(c3cccc4ccccc34)CC2)CC1` [Example 183, 2-Cyano-N-{4-[2-(4-naphthalen-1-ylpiperazin-1-yl)ethyl]cyclohexyl}acetamide], 174 °C. On to `COCCCC(=O)N[C@H]1CC[C@H](CCN2CC=C(c3cc(C(F)(F)F)ccc3F)CC2)CC1`, for which the melting point was 164 °C. With `O=C(N[C@H]1CC[C@H](CCN2CCN(c3cccc(F)c3F)CC2)CC1)C1=CCCC1` [Example 447, Cyclopent-1-enecarboxylic acid (4-{2-[4-(2,3-difluorophenyl)-piperazin-1-yl]ethyl}cyclohexyl) amide] the figure was 225 °C.

In turn, `N#CCCCC(=O)N[C@H]1CC[C@H](CCN2CCN(c3cccc(Cl)c3Cl)CC2)CC1` [Example 210, 4-Cyano-N-(4-{2-[4-(2,3-dichlorophenyl)piperazin-1-yl]ethyl}cyclohexyl)butanamide] gave a melting point of 192 °C. `CC(C)Oc1cccc(N2CCN(CC[C@H]3CC[C@H](NC(=O)CC#N)CC3)CC2)c1.Cl` yielded a melting point of 191 °C. With `CCc1ccccc1N1CCN(CC[C@H]2CC[C@H](NC(=O)CC#N)CC2)CC1` [Example 247, 2-Cyano-N-(4-{2-[4-(2-ethylphenyl)piperazin-1-yl]ethyl}cyclohexyl)acetamide] the figure was 142 to 143 °C. Take `COCCCC(=O)N[C@H]1CC[C@H](CCN2CCN(c3cc(F)cc(C(F)(F)F)c3)CC2)CC1` [Example 757, N-(4-{2-[4-(3-Fluoro-5-trifluoromethylphenyl)piperazin-1-yl]ethyl}cyclohexyl)-4-methoxybutanamide]: the melting point was determined as 177 °C. `N#CCC(=O)N[C@H]1CC[C@H](CCN2CCN(c3cc(F)c(F)c(F)c3)CC2)CC1` [Example 341, 2-Cyano-N-(4-{2-[4-(3,4,5-trifluorophenyl)piperazin-1-yl]ethyl}cyclohexyl)acetamide]: the melting point turned out to be 209 °C.

Turning to `CC(C)OCC(=O)N[C@H]1CC[C@H](CCN2CCN(c3cccc(C(F)(F)F)c3C#N)CC2)CC1` [Example 101, N-(4-{2-[4-(2-Cyano-3-trifluoromethylphenyl)piperazin-1-yl]ethyl}cyclohexyl)-2-isopropoxyacetamide], the melting point was 144 °C. The same measure for `O=C(COc1ccccc1)N[C@H]1CC[C@H](CCN2CCN(c3cccc(F)c3)CC2)CC1` [Example 396, N-(4-{2-[4-(3-Fluorophenyl)piperazin-1-yl]ethyl}cyclohexyl)-2-phenoxyacetamide]: 150 °C. The same measure for `N#CCC(=O)N[C@H]1CC[C@H](CCN2CCN(c3cc(F)cc(C(F)(F)F)c3)CC2)CC1` [Example 664, 2-Cyano-N-(4-{2-[4-(3-fluoro-5-trifluoromethylphenyl)piperazin-1-yl]ethyl}cyclohexyl)acetamide]: 178 °C. With `O=C(CC(F)(F)F)N[C@H]1CC[C@H](CCN2CCN(c3cccc4ncccc34)CC2)CC1` [Example 320, 3,3,3-Trifluoro-N-{4-[2-(4-quinolin-5-ylpiperazin-1-yl)ethyl]cyclohexyl}propanami-de] the figure was 207 °C. For `N#CCCCC(=O)N[C@H]1CC[C@H](CCN2CCN(c3ccc(F)cc3)CC2)CC1` [Example 283, 4-Cyano-N-(4-{2-[4-(4-fluorophenyl)piperazin-1-yl]ethyl}cyclohexyl)butanamide], the melting point came to 154 °C. The same measure for `CC(=O)CN1CCC(CCN2CC=C(c3ccc(F)cc3)CC2)CC1`: 72 °C; for `COCC(=O)N[C@H]1CC[C@H](CCN2CCN(c3cccc(F)c3F)CC2)CC1` [Example 91, N-(4-{2-[4-(2,3-Difluorophenyl)-piperazin-1-yl]ethyl}cyclohexyl)-2-methoxyacetamide]: 155 °C; for `CC(C)(C)OCC(=O)N[C@H]1CC[C@H](CCN2CCN(c3cccc(C(F)(F)F)c3)CC2)CC1` [Example 135, 2-tert-Butoxy-N-(4-{2-[4-(3-trifluoromethylphenyl)piperazin-1-yl]ethyl}cyclohexyl)acetamide trans/cis 95/5]: 81 °C.

`CC(=O)CN1CCC(CCN2CCN(c3cc(C(F)(F)F)ccc3Cl)CC2)CC1.Cl.Cl` returned a melting point of 299 °C.

On to `N#CC1CC1C(=O)N[C@H]1CC[C@H](CCN2CCN(c3cc(C(F)(F)F)ccc3F)CC2)CC1` (stereo partly shown) [Example 763, 2-Cyano-cyclopropanecarb-oxylic acid (4-{2-[4-(2-fluoro-5-trifluoromethylphenyl)piperazin-1-yl]ethyl}cyclohexyl) amide], for which the melting point was 196 °C. With `N#CCC(=O)N[C@H]1CC[C@H](CCN2CCN(c3cccc(Cc4ccccc4)c3)CC2)CC1` [Example 216, N-(4-{2-[4-(3-Benzylphenyl)-piperazin-1-yl]ethyl}cyclohexyl)-2-cyanoacetamide] the figure was 168 °C. With `CC(=O)c1cccc(N2CCN(CC[C@H]3CC[C@H](NC(=O)CC#N)CC3)CC2)c1` [Example 7, N-(4-{2-[4-(3-acetylphenyl)piperazin-1-yl]ethyl}cyclohexyl)-2-cyanoacetamide trans/cis 80/20] the figure was 160 °C.

Take `CO[C@H](C)C(=O)N[C@H]1CC[C@H](CCN2CCN(c3ccccc3F)CC2)CC1` (stereo in doubt) [Example 75, N-(4-{2-[4-(2-Fluorophenyl)-piperazin-1-yl]ethyl}cyclohexyl)-2-methoxypropanamide]: the melting point was 162 °C. In turn, `CSc1cccc(N2CCN(CC[C@H]3CC[C@H](NC(=O)CC#N)CC3)CC2)c1` [Example 182, 2-Cyano-N-(4-{2-[4-(3-methylsulfanylphenyl)piperazin-1-yl]ethyl}cyclohexyl)acetamide] had a melting point of 132 °C. In turn, `Cl.Cl.O=C(CN1CCC(CCN2CCN(c3cccc(C(F)(F)F)c3)CC2)CC1)c1ccc(F)c(F)c1` yielded a melting point of 220 °C. Turning to `O=C(N[C@H]1CC[C@H](CCN2CCN(c3ccc(Cl)c(Cl)c3)CC2)CC1)C1=CCCC1` [Example 486, Cyclopent-1-enecarboxylic acid (4-{2-[4-(3,4-dichlorophenyl)piperazin-1-yl]ethyl}cyclohexyl) amide], the melting point came out at 202 °C. In the case of `Cc1ccc(Cl)cc1N1CCN(CC[C@H]2CC[C@H](NC(=O)CCC(N)=O)CC2)CC1` [Example 190, N-(4-{2-[4-(5-Chloro-2-methylphenyl)piperazin-1-yl]ethyl}cyclohexyl)succinamide], the melting point fell in the range of 237 to 240 °C.
